Source: patent publication KR20110126596A, “자외선 방지제” (고쿠리츠 다이가쿠 호우징 지바 다이가쿠, priority 2008, dated 2010)

Tested on: RS cells [RS 세포]
Test: MTT assay of UV (UVC) irradiation-induced cell damage in cultured human RS cells pretreated with the substance
Type: cell-based
Conditions: UV 14 J/m2; for resistance to UV-induced cell damage compared with cells cultured without addition (in words): EPH 1/10 or 1/100 (v/v), 1 day, 3 days after irradiation (Fig. 2)

OCCOc1ccccc1 [페녹시에탄올]
resistance to UV-induced cell damage compared with cells cultured without addition (in words) (listed as EPH): 높은 저항성을 나타내었다 | resistance to UV-induced cell damage compared with cells cultured without addition (in words) (listed as 하이솔브 EPH): 높은 저항성을 나타낸다 | resistance to cell damage by UV irradiation, compared with no addition (phenoxyethanol added at 1/10 - 1/100 (v/v), 1 day pretreatment, MTT 3 days after irradiation): ≥ 2 fold
